Tests used:
[1] = First-in-human (FIH) clinical study of safety, tolerability and PK in healthy subjects; assay type: in vivo; conditions: single doses 3 mg to 1500 mg (Part A), total daily doses 10 mg to 300 mg for ten days (Part B), Part C, suspension, all cohorts
Experimental: In a first-in-human (FIH) clinical study of Compound I, the safety, tolerability, and pharmacokinetics (PK) of Compound I in healthy subjects was evaluated. Assessments of the relative bioavailability (BA) of Suspension 2 of Compound I compared to Suspension 1 of Compound I, food effect, and drug drug interactions (DDIs) between Compound I and itraconazole and midazolam were conducted.
This first-in-human (FIH) study of Compound I included three parts (Parts A, B, and C).
Approximately 154 healthy adult subjects were planned to be enrolled in planned cohorts. Approximately 76 subjects were planned to be enrolled in Part A (excluding optional Part A Cohorts), approximately 48 subjects in Part B (excluding optional Part B Cohorts), and approximately 30 subjects in Part C. There was no pre-specified ratio of males to females, but reasonable effort was made to enroll females of non-childbearing potential in all dosing cohorts.
Six dose escalation cohorts were planned for Part A, and five dose escalation cohorts were planned for Part B. Additional cohorts (A7 and A8) in Part A were enrolled based on data from previous cohorts. […]
Food effect was evaluated in an open label, single sequence Cohort A9 to evaluate the effect of food on the PK of Compound I based on emerging PK data during dose escalation. […]

[2] = target: T1, CFTR in F508del/MF-HBE cells (Homo sapiens, UniProt P13569, DEL508-508); assay: Ussing chamber assay of CFTR-mediated short-circuit currents (potentiator activity); assay type: cell-based; conditions: 18-24 hours at 37° C. with 10 μM Compound VII, 20% human serum, CFTR-mediated ISC
T1 construct: human bronchial epithelial (HBE) cells derived from CF subjects; endogenous in cells; host or cells: primary human bronchial epithelial cells from CF subjects (F508del/MF-HBE)
Experimental: Ussing chamber experiments were performed using human bronchial epithelial (HBE) cells derived from CF subjects heterozygous for F508del and a minimal function CFTR mutation (F508del/MF-HBE) and cultured as previously described (Neuberger T, Burton B, Clark H, Van Goor F Methods Mol Biol 2011:741:39-54). After four days the apical media was removed, and the cells were grown at an air liquid interface for >14 days prior to use.
To isolate the CFTR-mediated short-circuit (ISC) current, F508del/MF-HBE grown on Costar® Snapwell™ cell culture inserts were mounted in an Ussing chamber and the transepithelial ISC was measured under voltage-clamp recording conditions (Vhold=0 mV) at 37° C. The basolateral solution contained (in mM) 145 NaCl, 0.83 K2HPO4, 3.3 KH2PO4, 1.2 MgCl2, 1.2 CaCl2), 10 Glucose, 10 HEPES (pH adjusted to 7.4 with NaOH) and the apical solution contained (in mM) 145 NaGluconate, 1.2 MgCl2, 1.2 CaCl2), 10 glucose, 10 HEPES (pH adjusted to 7.4 with NaOH) and 30 μM amiloride to block the epithelial sodium channel. […] The CFTR-mediated ISC (uA/cm2) for each condition was determined from the peak forskolin response to the steady-state current following inhibition.
The activity of the CFTR potentiator compounds on the CFTR-mediated ISC was determined in Ussing chamber studies as described above. […]

T1 sequence (P13569 with tags, fused parts or gaps DEL508-508): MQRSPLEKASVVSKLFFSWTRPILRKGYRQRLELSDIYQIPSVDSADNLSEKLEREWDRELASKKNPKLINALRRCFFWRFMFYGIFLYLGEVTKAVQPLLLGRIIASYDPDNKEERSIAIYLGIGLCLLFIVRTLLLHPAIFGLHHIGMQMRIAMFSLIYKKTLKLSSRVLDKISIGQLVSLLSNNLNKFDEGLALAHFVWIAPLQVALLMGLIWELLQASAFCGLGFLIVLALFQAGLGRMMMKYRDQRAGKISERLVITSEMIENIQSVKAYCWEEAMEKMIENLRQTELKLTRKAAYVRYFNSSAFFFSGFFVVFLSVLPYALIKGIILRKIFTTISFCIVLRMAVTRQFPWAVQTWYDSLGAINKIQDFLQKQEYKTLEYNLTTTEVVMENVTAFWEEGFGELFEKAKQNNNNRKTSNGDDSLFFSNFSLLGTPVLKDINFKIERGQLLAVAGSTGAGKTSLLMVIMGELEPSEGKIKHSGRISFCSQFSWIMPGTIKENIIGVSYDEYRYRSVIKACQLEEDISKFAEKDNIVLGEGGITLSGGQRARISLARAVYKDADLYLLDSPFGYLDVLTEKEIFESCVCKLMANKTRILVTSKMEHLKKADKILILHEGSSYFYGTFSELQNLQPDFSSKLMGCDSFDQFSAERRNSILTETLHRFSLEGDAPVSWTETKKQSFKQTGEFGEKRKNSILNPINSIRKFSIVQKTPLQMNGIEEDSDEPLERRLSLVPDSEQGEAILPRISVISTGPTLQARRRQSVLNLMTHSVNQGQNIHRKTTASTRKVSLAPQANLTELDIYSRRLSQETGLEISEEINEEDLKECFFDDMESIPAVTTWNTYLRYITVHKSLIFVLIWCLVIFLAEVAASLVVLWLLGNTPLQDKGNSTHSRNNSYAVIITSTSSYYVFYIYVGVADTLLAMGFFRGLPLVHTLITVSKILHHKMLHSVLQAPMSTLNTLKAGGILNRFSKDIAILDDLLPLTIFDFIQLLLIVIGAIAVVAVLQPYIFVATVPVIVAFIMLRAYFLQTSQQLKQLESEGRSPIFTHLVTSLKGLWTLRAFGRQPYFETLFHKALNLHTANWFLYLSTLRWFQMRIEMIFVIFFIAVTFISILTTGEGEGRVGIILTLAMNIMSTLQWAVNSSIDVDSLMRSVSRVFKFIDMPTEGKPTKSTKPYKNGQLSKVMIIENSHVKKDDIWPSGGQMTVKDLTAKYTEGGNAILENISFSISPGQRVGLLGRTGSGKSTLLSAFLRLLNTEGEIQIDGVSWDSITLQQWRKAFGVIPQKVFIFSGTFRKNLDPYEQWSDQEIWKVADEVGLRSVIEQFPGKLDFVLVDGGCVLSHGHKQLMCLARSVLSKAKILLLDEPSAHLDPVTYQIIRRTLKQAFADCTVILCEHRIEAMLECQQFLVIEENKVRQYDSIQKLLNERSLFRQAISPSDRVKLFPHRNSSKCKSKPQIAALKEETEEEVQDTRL

EC50 [2]: < 500 nM
Structure (SMILES): CC1(C)CCCCC[C@](O)(C(F)(F)F)C2=NN=C(O2)c2nc(c(C(F)(F)F)cc2N)N1 [Compound I, (6R)-17-amino-12,12-dimethyl-6,15-bis(trifluoromethyl)-19-oxa-3,4,13,18-tetrazatricyclo[12.3.1.12,5]nonadeca-1 (18),2,4,14,16-pentaen-6-ol]
safety and tolerability [1]: generally safe and well-tolerated
